The text below walks through data of PubChem BioAssay (NCI).

Test systems include DU-145 prostate; UACC-62 melanoma; SK-OV-3 ovarian; HOP-62 NSCLC; SF-295 CNS; MOLT-4 leukemia; SNB-75 CNS; A498 renal; HCT-15 colon; SW-620 colon.
Holding throughout (experiment): NCI-60 cell line screen, 48 h

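Values below derive from 48-hour exposures of cells grown in 96-well plates, with endpoints linearly interpolated between the two concentrations bracketing the appropriate inhibition level. GI50 = concentration required for 50% inhibition of growth. At the TGI there is no net growth.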

For `CC(C)OC1=C(CC2(C)OCCO2)C(=O)C12OCCO2`, the TGI in the assay with DU-145 prostate, in the assay with UACC-62 melanoma, with SK-OV-3 ovarian, with HOP-62 NSCLC, with SF-295 CNS and with MOLT-4 leukemia was over 100 µM throughout. Also, the TGI with SNB-75 CNS, with A498 renal, in the assay on HCT-15 colon and in the assay with SW-620 colon was over 100 µM each time.
Regarding `COc1cc(C(c2ccccc2)N2C(=O)CC[C@H]2C(=O)O)cc(OC)c1OC` (stereo partly drawn), the TGI in the assay on DU-145 prostate, with UACC-62 melanoma, with SK-OV-3 ovarian, in the assay with HOP-62 NSCLC, with SF-295 CNS and in the assay with MOLT-4 leukemia was over 100 µM throughout. For the same compound, the TGI with SNB-75 CNS, in the assay on A498 renal, in the assay on HCT-15 colon and in the assay on SW-620 colon was over 100 µM throughout.
In the case of `O=C1C(c2ccccc2)=C(c2ccccc2)C1(Cl)Cl`, the TGI worked out at 24.5 µM in the assay with DU-145 prostate; 4.13 µM with UACC-62 melanoma; 29.2 µM with SK-OV-3 ovarian; 41.9 µM with HOP-62 NSCLC; 28.7 µM with SF-295 CNS; 6.97 µM with MOLT-4 leukemia. The TGI in the assay with SNB-75 CNS was 16.6 µM; with A498 renal, 17.2 µM; in the assay on HCT-15 colon it was 4.51 µM; in the assay on SW-620 colon it was 9.77 µM.
For the compound `O=c1oc2ccccc2c(O)c1C(c1ccc(OCc2ccccc2)cc1)c1c(O)c2ccccc2oc1=O`, the TGI in the assay with DU-145 prostate, with UACC-62 melanoma, with SK-OV-3 ovarian, in the assay with HOP-62 NSCLC, in the assay on SF-295 CNS and in the assay with MOLT-4 leukemia was over 100 µM each time. Also, the TGI in the assay on SNB-75 CNS is 65.6 µM; with A498 renal it was over 100 µM; in the assay on HCT-15 colon, over 100 µM; in the assay with SW-620 colon, over 100 µM.
On to `C=C(C)C1(Sc2ccc(OC)cc2)CC1`, for which the TGI with DU-145 prostate is over 100 µM; with UACC-62 melanoma, over 100 µM; in the assay with SK-OV-3 ovarian, over 100 µM; in the assay on HOP-62 NSCLC, over 100 µM; with SF-295 CNS, 71 µM; with MOLT-4 leukemia it was 40.3 µM. The TGI with SNB-75 CNS was 78.5 µM; with A498 renal, over 100 µM; in the assay with HCT-15 colon, over 100 µM; with SW-620 colon it was over 100 µM.
For the compound `N=C1C=CC(=C(c2ccc(N)cc2)c2ccc(N)cc2)C=C1`, the TGI was 17.7 µM in the assay on DU-145 prostate; 15.3 µM with UACC-62 melanoma; 36.2 µM with SK-OV-3 ovarian; 16.8 µM in the assay with HOP-62 NSCLC; 21.4 µM in the assay on SF-295 CNS; 42.1 µM with MOLT-4 leukemia. The TGI with SNB-75 CNS came out at 11.5 µM; with A498 renal, 17.3 µM; in the assay with HCT-15 colon, 53.3 µM; in the assay on SW-620 colon, 19.2 µM.
Take `CN(C)C(=O)N1N[C@H](c2ccccc2)[C@@H]1c1ccccc1`: the TGI in the assay with DU-145 prostate, in the assay with UACC-62 melanoma, with SK-OV-3 ovarian, with HOP-62 NSCLC, in the assay with SF-295 CNS and with MOLT-4 leukemia was over 100 µM in each case. For the same compound, the TGI in the assay with SNB-75 CNS, with A498 renal, with HCT-15 colon and in the assay with SW-620 colon was over 100 µM in each case.
For the compound `O=C(O)C(Cc1ccccc1)Cc1ccccc1`, the TGI in the assay with DU-145 prostate, with UACC-62 melanoma, in the assay on SK-OV-3 ovarian, in the assay on HOP-62 NSCLC, in the assay on SF-295 CNS and in the assay on MOLT-4 leukemia was over 100 µM each time. In addition, the TGI with SNB-75 CNS, with A498 renal, with HCT-15 colon and with SW-620 colon was over 100 µM in each case.
With `C1=CC2C(C3CN(c4ccccc4)N=C13)C1C3C4C=CC21C=CC43` (stereo not drawn), the TGI with DU-145 prostate, in the assay on UACC-62 melanoma, with SK-OV-3 ovarian, in the assay with HOP-62 NSCLC, in the assay with SF-295 CNS and with MOLT-4 leukemia was over 100 µM in each case. Besides, the TGI in the assay on SNB-75 CNS, with A498 renal, in the assay on HCT-15 colon and with SW-620 colon was over 100 µM in each case.
As for `COc1cc(C2c3cccc4cccc(c34)C3CCC(=O)N32)cc(OC)c1O` (stereo not drawn), the TGI in the assay with DU-145 prostate, with UACC-62 melanoma, in the assay with SK-OV-3 ovarian, in the assay with HOP-62 NSCLC, in the assay with SF-295 CNS and in the assay on MOLT-4 leukemia was over 50 µM in each case. The TGI in the assay with SNB-75 CNS, in the assay with A498 renal, in the assay on HCT-15 colon and in the assay on SW-620 colon was over 50 µM throughout.
Regarding `COc1cc2c3c(n(C)c(=O)c2cc1OC)-c1cc2c(cc1/C3=C\CCCCl)OCO2`, the GI50 in the assay on DU-145 prostate was 35.9 µM; in the assay on UACC-62 melanoma, 33.3 µM; with HOP-62 NSCLC, 17.5 µM. The TGI in the assay with DU-145 prostate was over 100 µM; in the assay on UACC-62 melanoma, over 100 µM; in the assay with SK-OV-3 ovarian, 49.3 µM; with HOP-62 NSCLC it was 62.8 µM; in the assay with SF-295 CNS, 99.2 µM; with MOLT-4 leukemia, 43.2 µM. Further, the TGI with SNB-75 CNS is 32.2 µM; in the assay on A498 renal it was 80.7 µM; in the assay with HCT-15 colon it was over 100 µM; with SW-620 colon it was over 100 µM.
For `c1ccc2c(c1)nnn2C1CCCCO1` (stereo not drawn), the TGI in the assay with DU-145 prostate, with UACC-62 melanoma, in the assay on SK-OV-3 ovarian, in the assay with HOP-62 NSCLC, in the assay on SF-295 CNS and in the assay on MOLT-4 leukemia was over 100 µM in each case. The TGI with SNB-75 CNS, in the assay on A498 renal, in the assay on HCT-15 colon and in the assay on SW-620 colon was over 100 µM each time.
For the compound `CCOc1ccc2c(c1)C(/C(C(Cl)=C(Cl)Cl)=[N+](/[O-])OC(=O)c1ccccc1)=N2`, the TGI with DU-145 prostate, with UACC-62 melanoma, in the assay with SK-OV-3 ovarian, in the assay with HOP-62 NSCLC, in the assay with SF-295 CNS and in the assay with MOLT-4 leukemia was over 100 µM each time. Besides, the TGI with SNB-75 CNS, with A498 renal, in the assay with HCT-15 colon and with SW-620 colon was over 100 µM each time.
As to `C[Si](C)(C)OC1(C#N)c2ccccc2CCCC12CCCC2` (stereo not drawn), the TGI in the assay with DU-145 prostate was over 100 µM; in the assay with UACC-62 melanoma, over 100 µM; in the assay with SK-OV-3 ovarian, over 100 µM; in the assay with HOP-62 NSCLC, over 100 µM; in the assay on SF-295 CNS, over 100 µM; in the assay on MOLT-4 leukemia, 61.7 µM. For the same compound, the TGI in the assay on SNB-75 CNS, with A498 renal, with HCT-15 colon and in the assay with SW-620 colon was over 100 µM throughout.
In the case of `Cc1ccc(C)n1-c1ccccc1C1C=Cn2c(=O)oc3c(OC(C)C)c(OC(C)C)c(O)c1c32` (stereo not drawn), the TGI in the assay on DU-145 prostate, in the assay on UACC-62 melanoma, in the assay on SK-OV-3 ovarian, with HOP-62 NSCLC, with SF-295 CNS and in the assay with MOLT-4 leukemia was over 100 µM in each case. Further, the TGI with SNB-75 CNS is over 100 µM; in the assay with A498 renal, over 100 µM; in the assay on HCT-15 colon, over 100 µM; in the assay on SW-620 colon, 75.6 µM.
Take `CCC[N+](C)(C)CCCNC(=O)c1c(O)c2ccccc2[nH]c1=O`: the TGI in the assay with DU-145 prostate, in the assay on UACC-62 melanoma, with SK-OV-3 ovarian, with HOP-62 NSCLC, with SF-295 CNS and with MOLT-4 leukemia was over 100 µM each time. The TGI with SNB-75 CNS, with A498 renal, in the assay with HCT-15 colon and with SW-620 colon was over 100 µM each time.
In the case of `CC1(C)C2CC3C(C)(C2)C31c1cc(Cl)ccc1N` (stereo not drawn), the TGI in the assay on DU-145 prostate came out at 27 µM; in the assay with UACC-62 melanoma, 29.1 µM; with SK-OV-3 ovarian, 29 µM; with HOP-62 NSCLC it was 29.4 µM; with SF-295 CNS it was 28.6 µM; with MOLT-4 leukemia, 22.7 µM. For the same compound, the TGI in the assay on SNB-75 CNS came out at 24.3 µM; in the assay with A498 renal, 31.8 µM; in the assay on HCT-15 colon it was 23 µM; in the assay on SW-620 colon, 28.2 µM.
